Experiment [1] concerns Dirofilaria immitis microfilariae. Put plainly: Dirofilaria immitis, Microfilariae (DiMF) In Vitro Assay. The following applies: Dirofilaria immitis.
For experiment [2], the target named is T1, bovine vesicular acetylcholine transporter (VAChT) (Bos taurus, UniProt E1BK36).
T1 sequence (E1BK36 1-524): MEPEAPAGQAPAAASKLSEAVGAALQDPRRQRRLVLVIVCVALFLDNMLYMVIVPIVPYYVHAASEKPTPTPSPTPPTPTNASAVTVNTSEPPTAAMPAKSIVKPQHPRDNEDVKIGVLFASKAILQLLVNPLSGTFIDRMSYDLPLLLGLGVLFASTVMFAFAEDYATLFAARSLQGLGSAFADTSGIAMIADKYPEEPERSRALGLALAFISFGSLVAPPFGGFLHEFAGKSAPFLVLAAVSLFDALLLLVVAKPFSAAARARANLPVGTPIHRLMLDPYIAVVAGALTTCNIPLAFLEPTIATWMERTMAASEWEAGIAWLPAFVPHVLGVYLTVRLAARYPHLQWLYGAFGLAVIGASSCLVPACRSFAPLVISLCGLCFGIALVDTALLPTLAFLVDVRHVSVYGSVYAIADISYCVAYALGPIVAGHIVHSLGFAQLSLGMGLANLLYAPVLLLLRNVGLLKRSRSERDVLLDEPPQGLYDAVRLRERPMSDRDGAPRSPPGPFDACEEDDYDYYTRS
Put plainly: Radioligand Binding Assay. The following applies: Bovine binding Ki, CHO-K1 membranes with recombinant bovine VAChT, [3H]Compound X6 0.3 nM.
Description: To measure binding affinity, CHO-K1 cells recombinantly expressing the bovine VAChT was generated as a stable cell line and subsequently used to produce membrane preparations.
Radioligand binding assays were conducted in disposable polypropylene 96-well plates. VAChT competition assays were initiated by the addition of bovine recombinant membrane homogenate (50 μg/well) in assay buffer (50 mM Tris-HCl, 120 mM NaCl, 5 mM KCl, 1 mM MgCl, and 2 mM CaCl, pH 7.4) containing [^3H]Compound X6 (0.3 nM) with or without competing ligand. The assay was allowed to equilibrate for 120 minutes at room temperature, before being filtered onto GF/C unifilter plates pre-coated in 0.3% polyethylenimine (Perkin Elmer Life and Analytical Sciences, Boston, Mass.) with a Filtermate 96 harvester (PerkinElmer Life and Analytical Sciences). Filters were washed in ice-cold 50 mM Tris-HCl, pH 7.4 buffer and then counted for radioactivity in a TopCount microplate scintillation counter after addition of 50 μL Microscint 20 (PerkinElmer). Non-specific binding was measured in the presence of 10 μM Compound X6. Apparent dissociation constants (Ki values) from the competition experiments were calculated using an iterative nonlinear regression curve-fitting program (GraphPAD Prism 6.0 Software, San Diego, Calif.) and are reported in Table 2.

A further experiment deals with Haemonchus contortus L3. Put plainly: Haemonchus contortus, Larvae Stage 3 (HcL3) In Vitro Assay. The following applies: Haemonchus contortus.
Where [3] appears, read: 72 h, read-out: Di MF, MEC, decrease in microfilariae motility by visual assessment, curve starting at 100 μM.
Where [4] appears, read: 96 h, read-out: HcL3 MEC, Minimal Effective Concentration whereby worm motility is inhibited by approximately 70%, 37° C., tested 0.001-100 μM.
The mark [5] stands for this setting: 96 hours, 37° C., read-out: HcL3 MEC.

From patent US20160296499A1, “Spiroindoline Antiparasitic Derivatives” (ZOETIS SERVICES LLC, priority 2013, published 2016) come the findings set out here.

Molecules are shown by their SMILES. Like-named read-outs stand apart in the source and are kept apart here.

With `COc1ccc(/C=C/CN2CCC3(CC2)CN(C(=O)NCc2ccnc(Cl)c2)c2ccc4scnc4c23)cc1` [Example 42, (E)-N-((2-chloropyridin-4-yl)methyl)-1-(3-(4-methoxyphenyl)allyl)spiro[piperidine-4,8′-thiazolo[4,5-e]indole]-6′(7′H)-carboxamide], the minimal effective concentration was 10 µM in experiment [1] (setting [3]) and more than 100 µM in the experiment on Haemonchus contortus L3 (setting [4]). The inhibition constant (Ki) in experiment [2] came to 55 nM.
Taken in the same sequence, the figures for `Cc1nc2c3c(ccc2s1)N(C(=O)NCc1ccnc(Cl)c1)CC31CCN(C/C=C/c2ccc(Cl)cc2)CC1` [Example 43, (E)-1-(3-(4-chlorophenyl)allyl)-N-((2-chloropyridin-4-yl)methyl)-2′-methylspiro[piperidine-4,8′-thiazolo[4,5-e]indole]-6′(7′H)-carboxamide] were 10 µM, more than 100 µM and 264 nM.
For the molecule `Cc1nc2c3c(ccc2s1)N(C(=O)NCc1ccnc(Cl)c1)CC31CCN(C/C=C/c2ccc(F)cc2)CC1` [Example 44, (E)-N-((2-chloropyridin-4-yl)methyl)-1-(3-(4-fluorophenyl)allyl)-2′-methylspiro[piperidine-4,8′-thiazolo[4,5-e]indole]-6′(7′H)-carboxamide], the minimal effective concentration in experiment [1] (72 hours, read-out: Di MF) is 10 µM; in the experiment with Haemonchus contortus L3 (setting [5]), more than 100 µM. The Ki in experiment [2] came to 507 nM.
For `Cc1nc2c3c(ccc2s1)N(C(=O)NCc1ccnc(Cl)c1)CC31CCN(C/C=C/c2ccc(C(F)(F)F)cn2)CC1` [Example 45, (E)-N-((2-chloropyridin-4-yl)methyl)-2′-methyl-1-(3-(5-(trifluoromethyl)pyridin-2-yl)allyl)spiro[piperidine-4,8′-thiazolo[4,5-e]indole]-6′(7′H)-carboxamide], the minimal effective concentration in experiment [1] (setting [3]) was 33 µM; with Haemonchus contortus L3 (setting [4]) it was more than 100 µM. The inhibition constant Ki in experiment [2] was found to be 3220 nM.
Taken in the same sequence, the figures for `COc1ccc(/C=C/CN2CCC3(CC2)CN(C(=O)NCc2ccnc(Cl)c2)c2ccc4sc(C)nc4c23)cc1` [Example 46, (E)-N-((2-chloropyridin-4-yl)methyl)-1-(3-(4-methoxyphenyl)allyl)-2′-methylspiro[piperidine-4,8′-thiazolo[4,5-e]indole]-6′(7′H)-carboxamide] were 10 µM, more than 100 µM and 883 nM.
Consider `O=C(NCc1ccnc(Br)c1)N1CC2(CCN(C/C=C/c3ccc(Cl)c(Cl)c3)CC2)c2c1ccc1scnc21` [Example 47, (E)-N-((2-bromopyridin-4-yl)methyl)-1-(3-(3,4-dichlorophenyl)allyl)spiro[piperidine-4,8′-thiazolo[4,5-e]indole]-6′(7′H)-carboxamide], for which the minimal effective concentration in experiment [1] (setting [3]) worked out at 10 µM; in the experiment on Haemonchus contortus L3 (setting [4]), 100 µM. Moreover, the inhibition constant Ki in experiment [2] stood at 919 nM.
As to `Cn1ncc2c3c(ccc21)N(C(=O)NCc1ccnc(Cl)c1)CC31CCN(C/C=C/c2ccc(Cl)cc2)CC1` [Example 51, (E)-1-(3-(4-chlorophenyl)allyl)-N-((2-chloropyridin-4-yl)methyl)-3′-methyl-3′H-spiro[piperidine-4,8′-pyrrolo[3,2-e]indazole]-6′(7′H)-carboxamide], the minimal effective concentration was 33.3 µM in experiment [1] (72 hours, read-out: Di MF) and more than 100 µM with Haemonchus contortus L3 (setting [5]). The inhibition constant Ki in experiment [2] turned out to be 518 nM.
Turning to `Cn1ncc2c3c(ccc21)N(C(=O)NCc1ccnc(Cl)c1)CC31CCN(C/C=C/c2ccc(F)cc2)CC1` [Example 52, (E)-N-((2-chloropyridin-4-yl)methyl)-1-(3-(4-fluorophenyl)allyl)-3′-methyl-3′H-spiro[piperidine-4,8′-pyrrolo[3,2-e]indazole]-6′(7′H)-carboxamide], the minimal effective concentration is 10 µM in experiment [1] (setting [3]) and more than 100 µM in the experiment on Haemonchus contortus L3 (setting [4]). The inhibition constant Ki in experiment [2] was 778 nM.
As to `Cn1ncc2c3c(ccc21)N(C(=O)NCc1ccnc(Cl)c1)CC31CCN(C/C=C/c2ccc(C(F)(F)F)cn2)CC1` [Example 53, (E)-N-((2-chloropyridin-4-yl)methyl)-3′-methyl-1-(3-(5-(trifluoromethyl)pyridin-2-yl)allyl)-3′H-spiro[piperidine-4,8′-pyrrolo[3,2-e]indazole]-6′(7′H)-carboxamide], the minimal effective concentration in experiment [1] (setting [3]) is 33 µM; in the experiment on Haemonchus contortus L3 (setting [4]) it was more than 100 µM. Further, in experiment [2], the Ki was 1930 nM.
Taken in the same sequence, the figures for `COc1ccc(/C=C/CN2CCC3(CC2)CN(C(=O)NCc2ccnc(Cl)c2)c2ccc4c(cnn4C)c23)cc1` [Example 54, (E)-N-((2-chloropyridin-4-yl)methyl)-1-(3-(4-methoxyphenyl)allyl)-3′-methyl-3′H-spiro[piperidine-4,8′-pyrrolo[3,2-e]indazole]-6′(7′H)-carboxamide] were 33 µM, more than 100 µM and 1400 nM.
On to `O=C(NCc1ccnc(Cl)c1)N1CC2(CCN(C/C=C/c3ccc(Cl)c(Cl)c3)CC2)c2cc(OC(F)(F)F)ccc21` [Example 55, (E)-N-((2-chloropyridin-4-yl)methyl)-1′-(3-(3,4-dichlorophenyl)allyl)-5-(trifluoromethoxy)spiro[indoline-3,4′-piperidine]-1-carboxamide], for which the results for the minimal effective concentration (in experiment [1] (setting [3]); with Haemonchus contortus L3 (setting [4])) were 5.7 µM and 3.3 µM, respectively. Besides, the inhibition constant Ki in experiment [2] was found to be 876 nM.
Turning to `O=C(NCc1ccnc(Cl)c1)N1CC2(CCN(C/C=C/c3ccc(Cl)c(Cl)c3)CC2)c2c1cccc2C(F)(F)F` [Example 56, (E)-N-((2-chloropyridin-4-yl)methyl)-1′-(3-(3,4-dichlorophenyl)allyl)-4-(trifluoromethyl)spiro[indoline-3,4′-piperidine]-1-carboxamide], the minimal effective concentration in experiment [1] (72 hours, read-out: Di MF) amounted to 9.1 µM; with Haemonchus contortus L3 (setting [5]), 4.5 µM. The Ki in experiment [2] turned out to be 432 nM.
For `O=C(NCc1cnc(Cl)s1)N1CC2(CCN(C/C=C/c3ccc(Cl)cc3)CC2)c2c(OC(F)(F)F)ccc(Cl)c21` [Example 57, (E)-7-chloro-1′-(3-(4-chlorophenyl)allyl)-N-((2-chlorothiazol-5-yl)methyl)-4-(trifluoromethoxy)spiro[indoline-3,4′-piperidine]-1-carboxamide], the minimal effective concentration was found to be 4 µM in experiment [1] (setting [3]) and 70 µM with Haemonchus contortus L3 (setting [4]). Besides, in experiment [2], the Ki worked out at 954 nM.
Take `O=C(NCc1ccnc(Cl)c1)N1CC2(CCN(C/C=C/c3ccc(F)cc3)CC2)c2c(OC(F)(F)F)ccc(Cl)c21` [Example 58, (E)-7-chloro-N-((2-chloropyridin-4-yl)methyl)-1′-(3-(4-fluorophenyl)allyl)-4-(trifluoromethoxy)spiro[indoline-3,4′-piperidine]-1-carboxamide]: the values for the minimal effective concentration (in experiment [1] (setting [3]); with Haemonchus contortus L3 (setting [4])) were 10 µM and 100 µM, respectively. In addition, in experiment [2], the Ki amounted to 1360 nM.
Consider `O=C(NCc1ccnc(Cl)c1)N1CC2(CCN(C/C=C/c3ccc(Cl)cc3)CC2)c2c(Cl)cc(Cl)cc21` [Example 59, (E)-4,6-dichloro-1′-(3-(4-chlorophenyl)allyl)-N-((2-chloropyridin-4-yl)methyl)spiro[indoline-3,4′-piperidine]-1-carboxamide], for which the minimal effective concentration in experiment [1] (72 hours, read-out: Di MF) came to 10 µM; in the experiment with Haemonchus contortus L3 (setting [5]), 100 µM. Also, in experiment [2], the inhibition constant (Ki) is 284 nM.
`O=C(NCc1ccnc(F)c1)N1CC2(CCN(C/C=C/c3ccc(Cl)cc3)CC2)c2c(Cl)cc(Cl)cc21` [Example 60, (E)-4,6-dichloro-1′-(3-(4-chlorophenyl)allyl)-N-((2-fluoropyridin-4-yl)methyl)spiro[indoline-3,4′-piperidine]-1-carboxamide]: the minimal effective concentration is 10 µM in experiment [1] (setting [3]) and 100 µM with Haemonchus contortus L3 (setting [4]). The inhibition constant (Ki) in experiment [2] was found to be 986 nM.
Taken in the same sequence, the figures for `O=C(NCc1ccnc(F)c1)N1CC2(CCN(C/C=C/c3ccc(Cl)cc3)CC2)c2c1cc(Cl)c(F)c2Cl` [Example 61, (E)-4,6-dichloro-1′-(3-(4-chlorophenyl)allyl)-5-fluoro-N-((2-fluoropyridin-4-yl)methyl)spiro[indoline-3,4′-piperidine]-1-carboxamide] were 10 µM, 100 µM and 671 nM.
`O=C(NCc1ccnc(F)c1)N1CC2(CCN(C/C=C/c3ccc(Cl)cc3)CC2)c2c1ccc(Cl)c2Cl` [Example 62, (E)-4,5-dichloro-1′-(3-(4-chlorophenyl)allyl)-N-((2-fluoropyridin-4-yl)methyl)spiro[indoline-3,4′-piperidine]-1-carboxamide]: the minimal effective concentration amounted to 10 µM in experiment [1] (setting [3]) and 3.3 µM in the experiment with Haemonchus contortus L3 (setting [4]). Moreover, the Ki in experiment [2] was 329 nM.
For the molecule `O=C(NCc1ccnc(F)c1)N1CC2(CCN(C/C=C/c3ccc(Cl)cc3)CC2)c2c1ccc(F)c2Cl` [Example 63, (E)-4-chloro-1′-(3-(4-chlorophenyl)allyl)-5-fluoro-N-((2-fluoropyridin-4-yl)methyl)spiro[indoline-3,4′-piperidine]-1-carboxamide], the minimal effective concentration came out at 5.7 µM in experiment [1] (setting [3]) and 8.2 µM in the experiment with Haemonchus contortus L3 (setting [4]). Also, in experiment [2], the Ki came to 182 nM.

Usually Ki stands for the equilibrium dissociation constant of an inhibitor or competing ligand from its target.
